The subject of the experiment is RAW 264.7 macrophages. Description: LPS-induced cytokine production in macrophages (ELISA, Western). Particulars: for TNF-α: RAW 264.7 macrophages. Format: cell-based, mouse. An excerpt:
Animals. Male C57BL/6 and IL-10 (−/−) mice were purchased from Jackson Laboratory (Bar Harbor, Me.), and allowed to acclimate for one week with rodent chow and water ad libitum. The MKK (−/−) mice were generated as previously described [Lu, et al., EMBO J. 18:1845-1857 (1999)]. Wild type littermates were used as controls. All animals were housed in accordance with guidelines from the American Association for Laboratory Animal Care and Research Protocols and were approved by the Animal Care and Use Committee of Yale University School of Medicine. Reagents. All reagents were purchased from Sigma Chemical Co. (St Louis, Mo.) unless specified otherwise. Plasmid Construct. Plasmid pSFFV/HO-1 was constructed by insertion of the rat HO-1 cDNA [Shibahara, et al., Proc. Natl. Acad. Sci. USA. 82: 7865-7869 (1985)] downstream of the Friend spleen focus-forming virus 5′ long-terminal repeat in the mammalian expression vector pSFFV/neo [Fuhlbrigge, et al, Proc. Natl. Acad. Sci. USA. 85: 5649-5653 (1988)] (kindly provided by Stanley Korsmeyer). Transfection. Stable transfections were carried out by the calcium phosphate precipitation technique as previously described [Alam, J., J. Biol. Chem. 269: 25049-25056 (1994)]. Briefly, RAW cells were plated (1×10^6/10 cm plate) and 16 h later, transfected with […] of pSFFV/neo or pSFFV/HO-1. Cells were exposed to the DNA-CaPO4 precipitate for 6 h, shocked by a 1 min treatment with glycerol in phosphate-buffered saline and cultured for an additional 24 h in complete medium before addition of G418. Transfectants were selected over a 3-week period in the presence of G418 (up to […]) and individual clones were isolated by limited dilution. Cell Culture Experimentation. RAW 264.7 mouse peritoneal macrophages were purchased from […] (Rockville, Md.) and primary culture of rat pulmonary vascular smooth muscle cells were harvested from male Sprague Dawley rats (250-300 g) as previously described [Gunther, et al., J. Cell. Biol. 92: 289-298 (1982).]. Both cell types were grown in DMEM containing 10% FBS and gentamicin ([…]) in a humidified atmosphere of 5% CO2/balanced air or 250 ppm CO/5% CO2/balanced air. After a 2 h pretreatment with either CO or air, LPS ([…]) or sterile saline was added to the culture media and the culture plates were returned to the chamber(s). At various time points, cell plates were removed from the chamber to collect media and/or cells for Western analysis. CO Exposures. Mice or macrophages were exposed to compressed air or 250 ppm CO. For cell culture experiments, 5% CO2 was also present for buffering requirements. CO at a concentration of 1% (10,000 ppm) in compressed air was mixed with compressed air with or without CO2 in a stainless steel mixing cylinder before delivery into the exposure chamber. Flow into the 3.70-ft^2 plexiglass animal chamber was maintained at 12 L/min and into the 1.2 ft^2 cell culture chamber at a flow of 2 L/min. The cell culture chamber was humidified and maintained at 37° C. A CO analyzer (Interscan, Chatsworth, Calif.) was used to measure CO levels continuously in the chambers. Gas samples were taken by the analyzer through a port in the top of the chambers at a rate of 1 L/min and analyzed by electrochemical detection, with a sensitivity of 10-600 ppm. Concentration levels were measured hourly and there were no fluctuations in the CO concentrations once the chamber had equilibrated (approximately 5 min). Animal Experimentation. Mice were prebled from the retroorbital sinus (0.25 ml) and then exposed to CO (250 ppm) or room air for 1 h prior to administration of LPS (1 mg/kg, i.p.), E. coli serotype O127:B8. 1 and 16 h thereafter, they were removed from the exposure apparatus individually and a blood sample was obtained via the retroorbital sinus. After the blood collection, the mice were immediately returned to the exposure chamber. […]
(In general: ELISA stands for enzyme-linked immunosorbent assay.)

Take `Nc1nc2c(nc(Br)n2[C@@H]2O[C@@H]3COP(=O)(O)O[C@H]3[C@H]2O)c(=O)[nH]1` [8-Br-cGMP, reference compound]: the TNF-α reads like this: (with LPS) 530 ± 35 pg/mL; (without LPS) 18 ± 6 pg/mL. Moreover, the “effect on LPS-induced TNF-α production” value (added to macrophage culture followed by LPS) is recorded as “no effect”.
